From patent US7786040B2, “4-cyclopropyl-1,2,3,-thiadiazole compound, agrohorticultural plant disease controlling agent and method of using the same” (Nihon Nohyaku Co., Ltd., priority 2005, dated 2010)

Columns and labels:
[1] = tested on: powdery mildew fungus (Blumeria graminis); experiment: Test Example 2: controlling effect by seed dressing against wheat powdery mildew, long-lasting effect; type: in vivo; conditions: 0.15% active ingredient based on weight of dry seeds, inoculated 50 days after sowing, investigated 7 days after inoculation
Text: (§1) Seeds of wheat (cultivar: chihoku komugi) and a wettable powder prepared according to Formulation Example were placed in a vinyl bag, followed by adding thereto a small volume of water, and they were mixed to conduct seed dressing. On the day after this treatment, the seeds sowed in a plastic pot of 10 cm diameter, and cultivated in a greenhouse. Twenty five days after sowing, the seedlings thus obtained were inoculated with powdery mildew fungus (Blumeria graminis) by sprinkling. Seven days after inoculation, the seedlings were investigated and infection index was estimated according to the criterion shown below, after which the control efficacy (%) was calculated. In this occasion, infection index on the untreated plot was 8.0. As comparative examples, the following compounds described in JP-A-2001-10909 were evaluated. • I: 3′-chloro-4,4′-dimethyl-1,2,3-thiadiazole-5-carboxanilide • II: benzyl 4-isopropyl-1,2,3-thiadiazole-5-carboxylate • III: methyl 4-cyclopropyl-1,2,3-thiadiazole-5-carboxylate • IV: 4-cyclopropyl-1,2,3-thiadiazole-5-carboxylic acid Infection Index • 0: No infection. • 0.5: Lesion area percentage: less than 10% • 1: Lesion area percentage; 10 to less than 20% • 2: Lesion area percentage; 20 to less than 30% • 3: Lesion area percentage; 30 to less than 40% • 4: Lesion area percentage; 40 to less than 50% • 5: Lesion area percentage; 50 to less than 60% • 6: Lesion area percentage; 60 to less than 70% • 7: Lesion area percentage; 70 to less than 80% • 8: Lesion area percentage; 80 to less than 90% • 9: Lesion area percentage; 90 to less than 100% • 10: Lesion area percentage; 100% Control efficacy (%)={1-(infection index on treated plot/infection index on untreated plot)}×100 Rank of Control Efficacy • A: Control efficacy 100-90% • B: Control efficacy 89-80% • C: Control efficacy 79-60% • D: Control efficacy 59-0%
Seeds of wheat (cultivar: Chihoku Komugi) and a wettable powder prepared according to Formulation Example were placed in a vinyl bag, followed by adding thereto a small volume of water, and they were mixed to conduct seed dressing. On the day after this treatment, the seeds sowed in a plastic pot of 10 cm diameter, and cultivated in a greenhouse. Fifty days after sowing, the seedlings thus obtained were inoculated with powdery mildew fungus (Blumeria graminis) by sprinkling. Seven days after inoculation, the seedlings were investigated and infection index was estimated according to the criterion shown below, after which the control efficacy (%) was calculated. In this occasion, infection index on the untreated plot was 8.0. As comparative examples, the above-described compounds I, II, III and IV were evaluated.

[2] = tested on: powdery mildew fungus (Blumeria graminis); experiment: Test Example 1: controlling effect by seed dressing against wheat powdery mildew; type: in vivo; conditions: 0.15% active ingredient based on weight of dry seeds, inoculated 25 days after sowing, investigated 7 days after inoculation
Text: as §1

SMILES	Rank of control efficacy [1]	Rank of control efficacy [2]
O=C(OCc1ccccc1Cl)c1snnc1C1CC1 [1-10, (2-chlorobenzyl)4-cyclopropyl-1,2,3-thiadiazole-5-carboxylate]	B or more	B or more
Cc1ccccc1COC(=O)c1snnc1C1CC1 [1-13]	B or more	B or more
Cc1ccc(COC(=O)c2snnc2C2CC2)cc1 [1-15]	B or more	B or more
COc1ccccc1COC(=O)c1snnc1C1CC1 [1-16]	B or more	B or more
COc1ccc(COC(=O)c2snnc2C2CC2)cc1 [1-18]	B or more	B or more
CC(C)(C)OC(=O)c1ccc(COC(=O)c2snnc2C2CC2)cc1 [1-25]		B or more
O=C(OCc1ccc(Cl)cc1Cl)c1snnc1C1CC1 [1-26]		B or more
CC(OC(=O)c1snnc1C1CC1)c1ccccc1 (stereo not drawn) [1-41]	B or more	B or more
Cc1ccc(C(C)OC(=O)c2snnc2C2CC2)cc1 (stereo not drawn) [1-47]		B or more
COc1ccc(C(C)OC(=O)c2snnc2C2CC2)cc1 (stereo not drawn) [1-50]	B or more	B or more
O=C(NCc1ccc(Cl)cc1)c1snnc1C1CC1 [1-56]		B or more
Cc1ccc(CNC(=O)c2snnc2C2CC2)cc1 [1-59]		B or more
COc1ccc(CNC(=O)c2snnc2C2CC2)cc1 [1-62]	B or more	B or more
Cc1ccc(Oc2ccc(CNC(=O)c3snnc3C3CC3)cc2)cc1 [1-65]		B or more
O=C(NCc1ccc(Oc2ccc(C(F)(F)F)cc2)cc1)c1snnc1C1CC1 [1-66]		B or more
O=C(NCc1ccc(OCC(F)(F)F)cc1)c1snnc1C1CC1 [1-68]	B or more	B or more
CN(Cc1ccccc1)C(=O)c1snnc1C1CC1 [1-82]	B or more	B or more
COc1ccc(NC(=O)c2snnc2C2CC2)cc1OC [1-97]	B or more	B or more
COC(c1ccc(NC(=O)c2snnc2C2CC2)cc1OC(C)C)(C(F)(F)F)C(F)(F)F [1-103]		B or more
O=C(Nc1nc2ccccc2s1)c1snnc1C1CC1 [1-111]	B or more	B or more
O=C(Nc1nnc(C(F)(F)F)s1)c1snnc1C1CC1 [1-112]	B or more	B or more

SMILES	Rank of control efficacy [1]	Rank of control efficacy [2]
O=C(NOCc1ccccc1)c1snnc1C1CC1 [1-113]	B or more	B or more
CS(=O)(=O)NC(=O)c1snnc1C1CC1 [1-120]		B or more
O=C(NS(=O)(=O)C(F)(F)F)c1snnc1C1CC1 [1-122]		B or more
Cc1ccc(NC(=S)c2snnc2C2CC2)cc1Cl [1-143, 3′-chloro-4-cyclopropyl-4′-methyl-1,2,3-thiadiazole-5-thiocarboxamilide]	B or more	B or more
COc1ccc(NC(=S)c2snnc2C2CC2)c(OC)c1 [1-144]	B or more	B or more
C=CCNC(=O)c1snnc1C1CC1 [1-145]	B or more	B or more
Cc1cccc(C)c1NC(=O)c1snnc1C1CC1 [1-151]		B or more
CCc1cccc(CC)c1NC(=O)c1snnc1C1CC1 [1-152]		B or more
Cc1cccc(C)c1N(C(=O)c1snnc1C1CC1)C(=O)c1snnc1C1CC1 [1-153]		B or more
CCc1cccc(CC)c1N(C(=O)c1snnc1C1CC1)C(=O)c1snnc1C1CC1 [1-154]		B or more
COc1ccc(OC)c(NC(=O)c2snnc2C2CC2)c1 [1-155]	B or more	B or more
COc1ccc(NC(=O)c2snnc2C2CC2)c(C)c1 [1-156]	B or more	B or more
O=C(NS(=O)(=O)c1ccc(Cl)cc1)c1snnc1C1CC1 [1-157]		B or more
O=C(NS(=O)(=O)c1ccccc1Cl)c1snnc1C1CC1 [1-158]		B or more
Cc1ccc(CNC(=O)c2snnc2C2CC2)c(C)c1 [1-162]		B or more
Cc1ccc(C)c(CNC(=O)c2snnc2C2CC2)c1 [1-163]		B or more
O=C(NCc1ccc(Cl)cc1Cl)c1snnc1C1CC1 [1-164]		B or more
COc1cccc(CNC(=O)c2snnc2C2CC2)c1OC [1-165]	B or more	B or more
COc1ccc(OC)c(CNC(=O)c2snnc2C2CC2)c1 [1-167]	B or more	B or more
COc1cc(CNC(=O)c2snnc2C2CC2)cc(OC)c1 [1-168]		B or more
CCOC(=O)c1csc(NC(=O)c2snnc2C2CC2)n1 [1-169]	B or more	B or more

SMILES	Rank of control efficacy [1]	Rank of control efficacy [2]
O=C(Nc1nc(-c2ccccc2)cs1)c1snnc1C1CC1 [1-170]	B or more	B or more
CCOC(=O)c1sc(NC(=O)c2snnc2C2CC2)nc1C [1-173]	B or more	B or more
Cc1nsc(NC(=O)c2snnc2C2CC2)c1Br [1-174]		B or more
COc1cc(OC)nc(NC(=O)c2snnc2C2CC2)n1 [1-175]	B or more	B or more
COc1cc(C)nc(NC(=O)c2snnc2C2CC2)n1 [1-176]	B or more	B or more
Cc1cc(C)nc(NC(=O)c2snnc2C2CC2)n1 [1-177]	B or more	B or more
O=C(Nc1nc2ccc(Cl)cc2s1)c1snnc1C1CC1 [1-178]	B or more	B or more
CN(C)c1ccncc1.O=C(Nc1nc2ccc(Cl)cc2s1)c1snnc1C1CC1 [1-179]	B or more	B or more
COc1ccc2nc(NC(=O)c3snnc3C3CC3)sc2c1 [1-180]		B or more
CN(C)c1ccncc1.COc1ccc2nc(NC(=O)c3snnc3C3CC3)sc2c1 [1-181]		B or more
Cc1nc(-c2ccccc2NC(=O)c2snnc2C2CC2)no1 [1-182]		B or more
Cc1nc(-c2cccnc2NC(=O)c2snnc2C2CC2)no1 [1-183]	B or more	B or more
O=C(Nc1cccc2nnsc12)c1snnc1C1CC1 [1-184]	B or more	B or more
O=C(NCc1cnc(Cl)s1)c1snnc1C1CC1 [1-185]		B or more
O=C(Nc1cccc2c1C(=O)OC2)c1snnc1C1CC1 [1-186]		B or more
CNC(=O)c1ccccc1NC(=O)c1snnc1C1CC1 [1-189]	B or more	B or more
CSc1ccccc1NC(=O)c1snnc1C1CC1 [1-190]	B or more	B or more
O=c1oc(-c2snnc2C2CC2)nc2ccccc12 [2-1, 2-(4-cyclopropyl-1,2,3-thiadiazol-5-yl)-4-H-3,1-benzoxazin-4-one]		B or more
N#Cc1snnc1C1CC1 [3-1, 4-cyclopropyl-1,2,3-thiadiazole-5-carbonitrile]	B or more	B or more
CC(C)c1nnsc1C(=O)OCc1ccccc1 [II, benzyl 4-isopropyl-1,2,3-thiadiazole-5-carboxylate, reference compound]		C (Control efficacy 79-60%)
